Consider three compounds from patent publication US20100056552A1, “COMBINATION FOR USE IN THE TREATMENT OF INFLAMMATORY DISORDERS” (priority 2007, published 2010).

A word on the viability: it is a read-out of living cells in per cent, often relative to untreated cells.

The test system of one data set is MonoMac-6 (MM6) cells. The data set is described as follows: PMA-induced TNF release from MonoMac-6 macrophages (Human TNF ELISA). The note with it: n=2; for mean TNF concentration after PMA stimulation: 48 h treatment, then PMA 10 ng/mL 5 h, untreated cells 41.1 pg/mL. Format: cell-based. On the procedure: (§1) Cells from the human macrophage cell-line MonoMac-6 (MM6) (Ziegler-Heitbrock et al, Int. J. Cancer, 41, 456 (1988)) were cultured (37° C./5% CO2) in RPMI-1640 medium supplemented with 1 mM sodium pyruvate, × nonessential amino acids, 10 μg/mL insulin, 1 mM oxalacetic acid, 100 units/mL penicillin, 100 μg/mL streptomycin and 5% (v/v) fetal bovine serum. At the start of the experiment, MM6 cells were seeded in 96-well plates at a density of 1×10^5 cells/mL (100 μL per well in cell the viability experiments, and 150 μL per well in the TNF release experiments—see below).
(§2) The MM6 cells were treated (incubation conditions as above) with indicated final concentrations of the test drugs for 48 hours prior to quantification of cell viability/growth or stimulation with phorbol-12-myristate-13-acetate (PMA; Sigma Aldrich, Stockholm, Sweden) followed by measurement of PMA-induced TNF-release (see below for details).
To stimulate formation and release of tumor necrosis factor (TNF), the MM6 cells were incubated (37° C./5% CO2) for five hours (in RPMI-1640 with 5% fetal bovine serum with supplements as above) with PMA at a final concentration of 10 ng/mL.
After spinning down the cells after the different MM6 incubations/stimulations (see above and below), the concentrations of TNF in the supernatants were quantitated using Human TNF ELISA Kit II from BD Biosciences—Pharmingen (San Diego, USA) according to instructions supplied by the manufacturer.
(§3) Stock solutions of suplatast (tosylate salt purchased from American Custom Chemicals Corporation, San Diego, USA) and rosuvastatin (sodium salt; rosuvastatin was extracted and purified from commercially available Crestor® tablets and isolated as sodium salt as described in Bioorganic & Medicinal Chemistry, Vol. 5, No. 5, pp 437-444, 1997) were made in sterile saline.
(In an ELISA, binding on a coated surface is turned into a signal by an enzyme label.)

Data set [1] in a line: MM6 cell growth/viability (WST-1 reagent). Format: cell-based. The note with it: human, MonoMac-6 (MM6) macrophage cell line, n=3, read-out: viability of MM6 cells compared to untreated MM6 cells; for viability at 48 h, 10 μM: drug alone 10 μM. On the procedure:
as §1, §2
MM6 cell growth/viability was measured using the Cell Proliferation Reagent WST-1 (Roche Diagnostics Scandinavia AB, Bromma, Sweden). The WST-1 reagent is designed to be used for spectrophotometric quantification of e.g. cell growth and viability and. was used according to the manufacturers' instructions.
as §3

Regarding `CC(C)c1nc(N(C)S(C)(=O)=O)nc(-c2ccc(F)cc2)c1/C=C/[C@@H](O)C[C@@H](O)CC(=O)O` [rosuvastatin], the figures for the “mean TNF concentration after PMA stimulation” value with MonoMac-6 (MM6) cells (drug alone 10 μM) and in the data set with MonoMac-6 (MM6) cells (drug alone 30 μM) were 76.7 pg/mL and 84.0 pg/mL, respectively. The viability at 48 h, 10 μM in data set [1] amounted to 105%. The viability at 48 h, 30 μM in data set [1] (drug alone 30 μM) amounted to 102%.

With `CC(C)c1c(C(=O)Nc2ccccc2)c(-c2ccccc2)c(-c2ccc(F)cc2)n1CC[C@@H](O)C[C@@H](O)CC(=O)O` [atorvastatin], the “mean TNF concentration after PMA stimulation” value in the data set with MonoMac-6 (MM6) cells (drug alone 10 μM) was determined as 133.6 pg/mL; in the data set with MonoMac-6 (MM6) cells (drug alone 30 μM), 59.7 pg/mL.

Take `CCOCC(O)COc1ccc(NC(=O)CC[S+](C)C)cc1` (stereo not drawn) [suplatast]: in the data set on MonoMac-6 (MM6) cells (drug alone 1 μM), the “mean TNF concentration after PMA stimulation” value was found to be 39.6 pg/mL and the “decrease in mean TNF concentration compared to the untreated cells” value was 3.8%. In the data set with MonoMac-6 (MM6) cells (drug alone 10 μM), the “mean TNF concentration after PMA stimulation” value came to 34.8 pg/mL and the “decrease in mean TNF concentration compared to the untreated cells” value is given as 15.4%. In addition, the viability at 48 h, 1 μM in data set [1] (drug alone 1 μM) came out at 94%. Besides, the viability at 48 h, 10 μM in data set [1] was 92%.
